Measured values published in patent publication US20230364118A1, “RIBITOL TREATMENT” (priority 2020, published 2023).
“Also recorded” adds a separate entry of the source. Like-named read-outs stand apart in the source and are kept apart here.

Legend:
[1] = Metabolic stability, all species; format: in vitro ADME, CD-1 mouse, Sprague-Dawley rat, Gottingen minipig, human; conditions: incubated up to 2 hours, all four species
Protocol: (§1) Metabolic stability of ribitol was conducted in liver microsomes, cytosol, and primary hepatocytes, from CD-1 mouse, Sprague-Dawley rat, Gottingen minipig, and human at a concentration of ribitol of 10 μM.
Therefore, metabolism is unlikely to be a major elimination pathway of ribitol.

[2] = biological target: hERG potassium channels (Homo sapiens, UniProt Q12809); assay: cell-based
hERG potassium channels, sequence (Q12809 whole entry): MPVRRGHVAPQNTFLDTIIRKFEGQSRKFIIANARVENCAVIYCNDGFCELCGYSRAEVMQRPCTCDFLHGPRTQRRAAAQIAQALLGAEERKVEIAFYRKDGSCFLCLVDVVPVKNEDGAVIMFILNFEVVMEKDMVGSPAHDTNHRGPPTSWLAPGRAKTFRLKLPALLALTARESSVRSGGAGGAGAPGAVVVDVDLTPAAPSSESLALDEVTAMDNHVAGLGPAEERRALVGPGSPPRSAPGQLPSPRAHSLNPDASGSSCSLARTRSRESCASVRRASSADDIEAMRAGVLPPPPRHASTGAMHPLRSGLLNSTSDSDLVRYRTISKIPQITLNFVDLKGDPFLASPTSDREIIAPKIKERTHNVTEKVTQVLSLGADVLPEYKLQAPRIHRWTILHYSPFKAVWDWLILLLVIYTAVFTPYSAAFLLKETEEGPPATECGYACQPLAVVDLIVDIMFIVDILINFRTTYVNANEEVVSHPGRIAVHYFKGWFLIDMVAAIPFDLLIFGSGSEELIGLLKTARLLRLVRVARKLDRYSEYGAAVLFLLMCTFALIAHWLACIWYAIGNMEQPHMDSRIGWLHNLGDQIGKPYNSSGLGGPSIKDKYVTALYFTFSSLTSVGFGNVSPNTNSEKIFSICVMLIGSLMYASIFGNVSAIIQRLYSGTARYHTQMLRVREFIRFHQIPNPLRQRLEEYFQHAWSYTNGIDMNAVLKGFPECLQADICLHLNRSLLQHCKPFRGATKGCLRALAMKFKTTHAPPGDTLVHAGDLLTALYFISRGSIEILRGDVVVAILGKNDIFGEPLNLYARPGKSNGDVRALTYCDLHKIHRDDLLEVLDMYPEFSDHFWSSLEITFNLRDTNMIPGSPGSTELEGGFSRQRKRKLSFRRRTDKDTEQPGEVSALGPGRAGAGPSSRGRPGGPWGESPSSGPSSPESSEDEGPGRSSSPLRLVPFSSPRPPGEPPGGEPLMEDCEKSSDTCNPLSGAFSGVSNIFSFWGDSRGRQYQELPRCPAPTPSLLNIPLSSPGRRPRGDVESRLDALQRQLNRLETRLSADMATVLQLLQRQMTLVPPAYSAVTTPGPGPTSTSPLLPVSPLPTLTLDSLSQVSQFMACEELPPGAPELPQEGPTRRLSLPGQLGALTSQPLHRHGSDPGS
Protocol: Therefore, the concentrations chosen for the definitive hERG assay were 0.1, 0.3, 1, and 3 mM, the detected concentrations of postperfusion solution were 0.101, 0.293, 0.999, and 2.90 mM, respectively.

[3] = 28-day repeat-dose oral toxicokinetics; format: in vivo, CD-1 mouse; conditions: for Tmax / Cmax / AUC(0-t): CD-1, mouse, plasma; for AUC(0-t): read-out: AUC0-24
Protocol: Toxicokinetics of ribitol was evaluated as part of the 28-day toxicology study in male and female CD-1 mice. […] Toxicokinetic animals were 12/sex in the control group and 48/sex/group in the treated groups. Blood samples were collected on Day 1 and Day 28 at pre-first dose, 0.5, 2, 4, 8 (prior to second dose), 8.5, 10, and 24 h.

[4] = Metabolic stability in liver microsomes, cytosol, hepatocytes; format: in vitro ADME
Protocol: as §1

[5] = Single intravenous dose PK; format: in vivo, Bama minipig; conditions: for CLs: Bama minipigs
Protocol: The PK of ribitol was studied in 2 male and 2 female Bama minipigs following escalating IV doses levels using the same animals with a 48 hour washout period at 10 mg/kg (Day 1), 30 mg/kg (Day 3) and 100 mg/kg (Day 5). On each dosing day, blood samples were collected serially up to 24 hours post dose.

[6] = Single intravenous dose PK; format: in vivo, CD-1 mouse; conditions: for CLs: CD-1 mice; for clearance: read-out: Systemic clearance (CLs)
Protocol: The PK of ribitol was studied in male and female CD-1 mice following three IV doses at 10, 30, and 100 mg/kg (n=3/dose/sex). Blood samples were collected serially up to 24 hours post dose.

[7] = both sexes, po, 0.5 g/kg, 0.5 g/kg/dose BID, Day 1, Mean of sexes
[8] = both sexes, po, 0.5 g/kg, 0.5 g/kg/dose BID, Day 28, Mean of sexes
[9] = both sexes, po, 1 g/kg, 1.0 g/kg/dose BID, Day 1, Mean of sexes
[10] = both sexes, po, 1 g/kg, 1.0 g/kg/dose BID, Day 28, Mean of sexes
[11] = both sexes, po, 1.5 g/kg, 1.5 g/kg/dose BID, Day 1, Mean of sexes
[12] = both sexes, po, 1.5 g/kg, 1.5 g/kg/dose BID, Day 28, Mean of sexes
[13] = female, po, 0.5 g/kg, 0.5 g/kg/dose BID, Day 1, Female
[14] = female, po, 0.5 g/kg, 0.5 g/kg/dose BID, Day 28, Female
[15] = female, po, 1 g/kg, 1.0 g/kg/dose BID, Day 1, Female
[16] = female, po, 1 g/kg, 1.0 g/kg/dose BID, Day 28, Female
[17] = female, po, 1.5 g/kg, 1.5 g/kg/dose BID (3.0 g/kg/day, NOAEL), Day 28, Female
[18] = female, po, 1.5 g/kg, 1.5 g/kg/dose BID, Day 1, Female
[19] = male, po, 0.5 g/kg, 0.5 g/kg/dose BID, Day 1, Male
[20] = male, po, 0.5 g/kg, 0.5 g/kg/dose BID, Day 28, Male
[21] = male, po, 1 g/kg, 1.0 g/kg/dose BID, Day 1, Male
[22] = male, po, 1 g/kg, 1.0 g/kg/dose BID, Day 28, Male
[23] = male, po, 1.5 g/kg, 1.5 g/kg/dose BID (3.0 g/kg/day, NOAEL), Day 28, Male
[24] = male, po, 1.5 g/kg, 1.5 g/kg/dose BID, Day 1, Male
[25] = CD-1, mouse, liver cytosol, Cytosol
[26] = CD-1, mouse, liver microsomes, Microsomes
[27] = CD-1, mouse, primary hepatocytes, Hepatocytes
[28] = Gottingen, minipig, liver cytosol, Cytosol
[29] = Gottingen, minipig, liver microsomes, Microsomes
[30] = Gottingen, minipig, primary hepatocytes, Hepatocytes
[31] = Sprague-Dawley, rat, liver cytosol, Cytosol
[32] = Sprague-Dawley, rat, liver microsomes, Microsomes
[33] = Sprague-Dawley, rat, primary hepatocytes, Hepatocytes
[34] = human, liver microsomes, Microsomes
[35] = human, primary hepatocytes, Hepatocytes

OC[C@@H](O)[C@@H](O)[C@@H](O)CO [ribitol, (2R,3s,4S)-Pentane-1,2,3,4,5-pentol]
metabolic stability in liver microsomes, cytosol, hepatocytes [1]: stable; also recorded: not metabolized by the enzymes in the liver
IC50 [2]: > 2900 µM
drug accumulation ([3]; after 28 days repeated oral administration, any dose level): no apparent ribitol drug accumulation
Tmax ([3]; both sexes, oral, post first dose and post second dose, Day 1 or Day 28): 0.5 h
Cmax [3, 7]: 141 µg/mL
AUC(0-t) [3, 7]: 337 µg·h/mL
Cmax [3, 8]: 140 µg/mL
AUC(0-t) [3, 8]: 422 µg·h/mL
Cmax [3, 9]: 257 µg/mL
AUC(0-t) [3, 9]: 540 µg·h/mL
Cmax [3, 10]: 245 µg/mL
AUC(0-t) [3, 10]: 806 µg·h/mL
Cmax [3, 11]: 384 µg/mL
AUC(0-t) [3, 11]: 1020 µg·h/mL
Cmax [3, 12]: 336 µg/mL
AUC(0-t) [3, 12]: 1090 µg·h/mL
Cmax [3, 13]: 157 µg/mL
Tmax [3, 13]: 8.5 h
AUC(0-t) [3, 13]: 322 µg·h/mL
Cmax [3, 14]: 141 µg/mL
Tmax [3, 14]: 8.5 h
AUC(0-t) [3, 14]: 393 µg·h/mL
Cmax [3, 15]: 227 µg/mL
Tmax [3, 15]: 8.5 h
AUC(0-t) [3, 15]: 520 µg·h/mL
Cmax [3, 16]: 252 µg/mL
Tmax [3, 16]: 0.5 h
AUC(0-t) [3, 16]: 794 µg·h/mL
Cmax [3, 17]: 294 µg/mL
AUC(0-t) [3, 17]: 839 µg·h/mL
Cmax [3, 18]: 334 µg/mL
Tmax [3, 18]: 8.5 h
AUC(0-t) [3, 18]: 1070 µg·h/mL
Tmax ([3]; female, po, 1.5 g/kg, 1.5 g/kg/dose BID, Day 28, Female): 8.5 h
Cmax [3, 19]: 124 µg/mL
Tmax [3, 19]: 0.5 h
AUC(0-t) [3, 19]: 351 µg·h/mL
Cmax [3, 20]: 138 µg/mL
Tmax [3, 20]: 0.5 h
AUC(0-t) [3, 20]: 450 µg·h/mL
Cmax [3, 21]: 286 µg/mL
Tmax [3, 21]: 8.5 h
AUC(0-t) [3, 21]: 559 µg·h/mL
Cmax [3, 22]: 238 µg/mL
Tmax [3, 22]: 8.5 h
AUC(0-t) [3, 22]: 818 µg·h/mL
Cmax [3, 23]: 377 µg/mL
AUC(0-t) [3, 23]: 1340 µg·h/mL
Cmax [3, 24]: 433 µg/mL
Tmax [3, 24]: 8.5 h
AUC(0-t) [3, 24]: 972 µg·h/mL
Tmax ([3]; male, po, 1.5 g/kg, 1.5 g/kg/dose BID, Day 28, Male): 8.5 h
CLint scaled at 10 μM [4, 25]: 4.75 mL/min/kg
half-life at 10 μM [4, 25]: 9.63 h
CLint scaled at 10 μM [4, 26]: < 29.3 mL/min/kg
half-life at 10 μM [4, 26]: > 3.12 h
CLint scaled at 10 μM [4, 27]: < 22.6 mL/min/kg
half-life at 10 μM [4, 27]: > 6.07 h
CLint scaled at 10 μM [4, 28]: 2.71 mL/min/kg
half-life at 10 μM [4, 28]: 3.27 h
CLint scaled at 10 μM [4, 29]: < 5.56 mL/min/kg
half-life at 10 μM [4, 29]: > 3.12 h
CLint scaled at 10 μM [4, 30]: < 9.16 mL/min/kg
half-life at 10 μM [4, 30]: > 6.07 h
CLint scaled at 10 μM [4, 31]: 4.83 mL/min/kg
half-life at 10 μM [4, 31]: 4.3 h
CLint scaled at 10 μM [4, 32]: < 13.3 mL/min/kg
half-life at 10 μM [4, 32]: > 3.12 h
CLint scaled at 10 μM [4, 33]: < 8.89 mL/min/kg
half-life at 10 μM [4, 33]: > 6.07 h
CLint scaled at 10 μM ([4]; human, liver cytosol, Cytosol): 1.64 mL/min/kg
half-life at 10 μM ([4]; human, liver cytosol, Cytosol): 6.35 h
CLint scaled at 10 μM [4, 34]: < 6.66 mL/min/kg
half-life at 10 μM [4, 34]: > 3.12 h
CLint scaled at 10 μM [4, 35]: < 5.28 mL/min/kg
half-life at 10 μM [4, 35]: > 6.07 h
AUC(0-inf) ([5]; Bama, minipig, plasma, IV 10 mg/kg, female): 17 µg·h/mL
half-life ([5]; Bama, minipig, plasma, IV 10 mg/kg, female, read-out: T1/2 (converted)): 0.556 h
Vd ([5]; Bama, minipig, plasma, IV 10 mg/kg, female, read-out: Vss): 0.417 L/kg
AUC(0-inf) ([5]; Bama, minipig, plasma, IV 10 mg/kg, male): 11.2 µg·h/mL
half-life ([5]; Bama, minipig, plasma, IV 10 mg/kg, male, read-out: T1/2 (converted)): 0.545 h
Vd ([5]; Bama, minipig, plasma, IV 10 mg/kg, male, read-out: Vss): 0.603 L/kg
AUC(0-inf) ([5]; Bama, minipig, plasma, IV 30 mg/kg, female): 57 µg·h/mL
half-life ([5]; Bama, minipig, plasma, IV 30 mg/kg, female, read-out: T1/2 (converted)): 0.748 h
Vd ([5]; Bama, minipig, plasma, IV 30 mg/kg, female, read-out: Vss): 0.582 L/kg
AUC(0-inf) ([5]; Bama, minipig, plasma, IV 30 mg/kg, male): 35.8 µg·h/mL
half-life ([5]; Bama, minipig, plasma, IV 30 mg/kg, male, read-out: T1/2 (converted)): 0.519 h
Vd ([5]; Bama, minipig, plasma, IV 30 mg/kg, male, read-out: Vss): 0.5 L/kg
AUC(0-inf) ([5]; Bama, minipig, plasma, IV 100 mg/kg, female): 210 µg·h/mL
half-life ([5]; Bama, minipig, plasma, IV 100 mg/kg, female, read-out: T1/2 (converted)): 0.993 h
Vd ([5]; Bama, minipig, plasma, IV 100 mg/kg, female, read-out: Vss): 0.434 L/kg
AUC(0-inf) ([5]; Bama, minipig, plasma, IV 100 mg/kg, male): 150 µg·h/mL
half-life ([5]; Bama, minipig, plasma, IV 100 mg/kg, male, read-out: T1/2 (converted)): 0.773 h
Vd ([5]; Bama, minipig, plasma, IV 100 mg/kg, male, read-out: Vss): 0.449 L/kg
CLs ([5]; IV 10 mg/kg, female): 10.1 mL/min/kg
CLs ([5]; IV 10 mg/kg, male): 15.1 mL/min/kg
half-life ([5]; both sexes, Bama, plasma, iv, minipig, range, read-out: T1/2 following the IV dose): 0.519 to 0.993 h
clearance ([5]; both sexes, Bama, plasma, minipig, IV 10-100 mg/kg, range, read-out: Systemic clearance (CLs)): 7.95 to 15.1 mL/min/kg
Vd ([5]; both sexes, Bama, plasma, minipig, IV, range, read-out: Volume of distribution at steady state (Vss)): 0.417 to 0.603 L/kg
AUC(0-inf) ([6]; CD-1, mouse, plasma, IV 10 mg/kg, female): 13.3 µg·h/mL
Vd ([6]; CD-1, mouse, plasma, IV 10 mg/kg, female, read-out: Vss): 4.27 L/kg
AUC(0-inf) ([6]; CD-1, mouse, plasma, IV 10 mg/kg, male): 7.32 µg·h/mL
Vd ([6]; CD-1, mouse, plasma, IV 10 mg/kg, male, read-out: Vss): 1.49 L/kg
AUC(0-inf) ([6]; CD-1, mouse, plasma, IV 30 mg/kg, female): 20.1 µg·h/mL
Vd ([6]; CD-1, mouse, plasma, IV 30 mg/kg, female, read-out: Vss): 3 L/kg
AUC(0-inf) ([6]; CD-1, mouse, plasma, IV 30 mg/kg, male): 22.3 µg·h/mL
Vd ([6]; CD-1, mouse, plasma, IV 30 mg/kg, male, read-out: Vss): 6.74 L/kg
AUC(0-inf) ([6]; CD-1, mouse, plasma, IV 100 mg/kg, female): 43.1 µg·h/mL
Vd ([6]; CD-1, mouse, plasma, IV 100 mg/kg, female, read-out: Vss): 2.67 L/kg
AUC(0-inf) ([6]; CD-1, mouse, plasma, IV 100 mg/kg, male): 49.7 µg·h/mL
Vd ([6]; CD-1, mouse, plasma, IV 100 mg/kg, male, read-out: Vss): 2.01 L/kg
CLs ([6]; IV 10 mg/kg, female): 12.6 mL/min/kg
CLs ([6]; IV 10 mg/kg, male): 23.4 mL/min/kg
clearance ([6]; both sexes, CD-1, plasma, mouse, IV 100 mg/kg, range): 33.6 to 38.9 mL/min/kg
clearance ([6]; both sexes, CD-1, plasma, mouse, IV 10 and 30 mg/kg, range): 12.6 to 25 mL/min/kg
Vd ([6]; both sexes, CD-1, plasma, mouse, IV, range, read-out: Volume of distribution at steady state (Vss)): 1.49 to 6.74 L/kg
